Test results taken from patent US8703727B2, “Nanotechnology formulation of poorly soluble compounds” (Aphios Corporation, priority 2010, dated 2014).
In brackets after ≈: the same amount, converted by molar mass. Read-outs that look alike come from different tables or passages of the source. Blank lines part the entries; values can stand above or below the molecule they belong to.

How the values were obtained:
[1] = Preliminary solubility experiments in methanol; assay type: physicochemical
Protocol: Samples were weighed into 20-mL scintillation vials and 10 mL of methanol pipetted into each vial. […] An additional 10 mL of methanol was added to each of these vials. Now sample 3 dissolved completely, but particles still remained in sample 5. An additional 20 mL of methanol was added to sample 5, but on sonication, the small quantity of particles still remained.

[2] = Solubility of aminoflavone in DI water and 1% PVA (HPLC); assay type: physicochemical; details: for solubility at 5 min: thermodynamic from solid
Protocol: Procedure: • 1. Weigh 5-10 mg of Aminoflavone into two 20 mL scintillation vials. • 2. Pipette 10 mL of water into Vial A and 10 mL of 1% PVA into Vial B. • 3. Shake the vials gently for about 5 minutes. Then let stand for 30 minutes. • 4. Carefully withdraw 0.9 mL from each vial for HPLC Analysis • 5. Shake the samples again and transfer to 50 mL Centrifuge tubes. • 6. Centrifuge for 20 minutes at 2500 rpm • 7. Again carefully withdraw 0.9 mL from each for HPLC Analysis.
Shaking the Aminoflavone in either water or 1% Aqueous PVA results in a dispersion of small particles that are difficult to see. They are suspended in the solution. HPLC duplication will be very poor since the “solution” is not uniform suspension of different size particles.

[3] = Solubility of S4 and S5 in methanol and ethanol (saturated solution, HPLC); assay type: physicochemical; details: 25° C.; for solubility at 5 min: organic solvent or mixture, thermodynamic from solid
Protocol: HPLC Method • Column: Phenomenex Luna C18(2), 15-cm×4.6 mm. • Buffer Concentrate (BC): 100 mL Et3N×80 mL 85% H3PO4 to 1000 mL with water. • Mobile Phase B=250 mL ACN+10 mL of BC to 1000 mL with water. • Mobile Phase C=100% ACN • Isocratic Mixture: 60% Phase B and 40% Phase C. • Alternatively, use 55% Acetonitrile with 3-mL Buffer Concentrate/1000 mL • Flow=1.5 mL/min Temperature=30° C. Wavelength=330 nm Injection=20 μL
Procedure for Formation of a Saturated Solution • 1. Weigh in duplicate approximately 100 milligrams of each standard into 1.5 mL mini-centrifuge tubes. • 2. Add 1.00 mL of Methanol to a S4 tube and 1.00 mL of Ethanol to the other S4 tube. Add 1.00 mL of Methanol to a S5 tube and 1.00 mL of Ethanol to the other S5 tube. • 3. Shake all four tubes for 5 minutes at room temperature (25° C.). • 4. Centrifuge at 6000 rpm for 10 minutes. The supernatant should be a saturated solution. • 5. Assay the supernatants by HPLC. Use a 20/1000 dilution in methanol. The target absorbance is 0.40 AU. A reasonable absorbance range is 0.10 to 1.20. If the absorbance that is found is outside of this range, dilute appropriately to bring the absorbance close to 0.40.

[4] = Solubility of aminoflavone in Freon-22 / ethanol (BPN-06, BPN-07, BPN-08); assay type: physicochemical; details: 40 °C, organic solvent or mixture, thermodynamic from solid
Protocol: Three supercritical, critical or near critical fluid solubility experiments were conducted on the aminoflavone prodrug (NSC 686288). The experiments were conducted with 100% (neat) Freon-22 at 3,000 psig (BPN-06), and 40° C., 90% Freon-22/10% ethanol at 3,000 psig and 40° C. (BPN-07) and 80% Freon-22/20% ethanol at 3,000 psig and 40° C. (BPN-08). These supercritical, critical or near critical fluid and conditions were selected on the basis of previous experience.
A 5.0 mL sample loop was utilized and each collection vial contained 5.0 ml of the same liquid as the sample loop rinse. Methanol was used as the collection fluid and sample rinse in BPN-06; ethanol was utilized as the collection fluid and sample rinse in BPN-07 and BPN-08. Samples were collected after circulation for 60, 75, 90, 105 and 120 minutes; the sample loop was then flushed of CO2 (except BPN-06). The fractions were then analyzed by HPLC. Each solubility data point is the average of 5 measurements.

[5] = HPLC analysis for degradation after supercritical fluid particle size reduction; assay type: physicochemical; details: nitrogen 3,000 psig, 60 minutes, rapid depressurization
Protocol: Three nanoparticles experiments were conducted—two with surrogate compounds and one with aminoflavone prodrug (Sample 5). In general, the poorly water-soluble anticancer compound was first saturated with water by placement in the vapor generated by a 39° C. temperature water bath for 60 minutes. The water-saturated sample was then frozen in a −80° C. freezer for 60 minutes. The frozen particles were then placed in the chamber of the nanoparticles apparatus (FIG. 2) and contacted with nitrogen at 3,000 psig for 60 minutes to ensure maximum saturation of the hydrophobic anticancer compound by the SFS. The materials were then rapidly depressurized, discharging the chamber contents into a collection container. The experiments were conducted following Standard Operating Procedure SOP #APH-S0603 and Drawing #9706-001 Rev 2 in Appendix C.
Three samples in aluminum weigh boats with contents weight of 0.4 to 0.5 mg was provided. To obtain the assay solution, each boat was placed in a sonicator bath filled to a height of 3 mm with water. Ten milliliters of methanol was pipetted into the boat and the sonicator was turned on for 20 seconds. The yellow residue in the boat dissolved completely in less than 5 seconds. After sonication, the sample was drawn back into the 10 mL pipette and transferred to a 20 mL scintillation vial to await HPLC assay. […]

[6] = HPLC analysis of 0.45 micron filter filtrate of BPN-20 in 1% PVA; assay type: physicochemical
Protocol: Procedure: • 1. Write A, B, C, and D on each of four 0.45 micron 47 mm Nylon 66 filters with a soft pencil. • 2. Weigh each of the filters. • 3. Draw Methanol through Filter A and set on a paper towel to dry. • 4. Weigh about 10 mg of aminoflavone onto Filter B and get an accurate weight. • 5. Draw 100 mL of Methanol through Filter B and bring to 100 mL in a 100 mL vol flask • 6. Set Filter B aside to dry on a paper towel. • 7. Draw 20 mL of 1% PVA through Filter C and set on a paper towel to dry. • Save the Filtrate for HPLC Assay • 8. Draw 20 mL of BPN-20 yellow ppt through Filter D and set on a paper towel to dry. • Save the Filtrate for HPLC Assay • 9. Place all four filters in the vacuum oven for 1 hour at 60 C. Then weigh the filters. • 10. Draw 100 mL of Methanol through Filters C and D. Bring to 100 mL with Methanol. • 11. Dry, vacuum oven, and get an accurate weight on filters C and D.

[7] = cited from earlier work
[8] = molar-equivalent basis; cited from earlier work
[9] = HPLC of old standard solutions stored at room temperature; assay type: physicochemical

S = mg/100 mL (preliminary solubility in methanol) [1]: >87 mg/100 mL
Structure (SMILES): CCCCCCCCCCCCCCC[C@H](O)[C@@H](N)CO [Sample 3, Safingol]

S = mg/100 mL (preliminary solubility in methanol) [1]: 48 mg/100 mL
solubility ([1]; organic solvent or mixture, thermodynamic from solid, read-out: measured solubility in methanol): 480 µg/mL (≈ 1500 µM)
solubility at 5 min ([2]; 1% PVA in water, aqueous with cosolvent or surfactant or cyclodextrin, 1% PVA after centrifugation, average, read-out: average (actual) solubility): 0.22 µg/mL (≈ 0.687 µM)
solubility at 5 min ([2]; 1% PVA in water, aqueous with cosolvent or surfactant or cyclodextrin, 1% PVA after centrifugation, read-out: Solubility): 0.2 µg/mL (≈ 0.624 µM)
solubility at 5 min ([2]; 1% PVA in water, aqueous with cosolvent or surfactant or cyclodextrin, 1% PVA, after shaking, before centrifugation, read-out: Solubility): 14 µg/mL (≈ 43.7 µM)
solubility at 5 min ([2]; 1% PVA in water, aqueous with cosolvent or surfactant or cyclodextrin, 1% PVA, before centrifugation, average, read-out: average (apparent) solubility): 12.1 µg/mL (≈ 37.6 µM)
average (apparent) solubility ([2]; 1% PVA, before centrifugation, average): 12 µg/mL
average solubility ([2]; DI water after centrifugation, average): 0.31 µg/mL
solubility at 5 min ([2]; DI water, water, DI water after centrifugation, average, read-out: average solubility): 0.33 µg/mL (≈ 1.03 µM)
solubility at 5 min ([2]; DI water, water, DI water after centrifugation, read-out: Solubility): 0.34 µg/mL (≈ 1.06 µM)
solubility at 5 min ([2]; DI water, water, DI water, after shaking, before centrifugation, read-out: Solubility): 7.84 µg/mL (≈ 24.5 µM)
solubility at 5 min ([2]; DI water, water, DI water, before centrifugation, average, read-out: average solubility): 10.7 µg/mL (≈ 33.3 µM)
Solubility (mg/100 mL) ([3]; Ethanol): 240 mg/100 mL
Solubility (mg/100 mL) ([3]; Methanol): 280 mg/100 mL
solubility at 5 min ([3]; Ethanol): 240 µg/mL (≈ 749 µM)
solubility at 5 min ([3]; Methanol): 280 µg/mL (≈ 874 µM)
solubility ([4]; BPN-06: Freon-22 100 vol %, ethanol 0 vol %, 3,000 psig and 40° C.): 65 µg/mL (≈ 203 µM)
solubility ([4]; BPN-07: Freon-22 90 vol %, ethanol 10 vol %, 3,000 psig and 40° C.): 108 µg/mL (≈ 337 µM)
solubility ([4]; BPN-08: Freon-22 80 vol %, ethanol 20 vol %, 3,000 psig and 40° C.): 116 µg/mL (≈ 362 µM)
product degradation of treated materials versus untreated controls (HPLC) [5]: did not indicate any product degradation
solubility in 1% PVA [6]: essentially insoluble
Structure (SMILES): Cc1c(F)c(N)c2c(=O)cc(-c3ccc(N)c(F)c3)oc2c1F [Sample 5, Aminoflavone]
solubility in DMSO ([7]; DMSO): readily soluble
solubility ([7]; pH 4 and pH 7): 0.126 to 0.188 µg/mL
aqueous solubility ([7]; pH 10 (glycine buffer)): 0.65 µg/mL (≈ 2.03 µM)
toxicity of intravenous treatments versus prodrug NSC 710464D [8]: less toxic

S = mg/100 mL (preliminary solubility in methanol) [1]: >163 mg/100 mL
decomposition of old standard solution ([9]; methanol solution stored at room temperature on the laboratory bench): showed decomposition products
Structure (SMILES): CC1=C(/C=C/C(C)=C/C=C/C(C)=C/C(=O)Nc2ccc(O)cc2)C(C)(C)CCC1 [Sample 2, Fenretinide (4HPR)]

Structure (SMILES): C=CCNC1=C2C[C@@H](C)C[C@H](OC)[C@H](O)[C@@H](C)/C=C(\C)[C@H](OC(N)=O)[C@@H](OC)/C=C\C=C(/C)C(=O)NC(=CC1=O)C2=O [Sample 4, 17-Allylamino Demethoxygeldanamycin (17-AAG)]
S = mg/100 mL (preliminary solubility in methanol) [1]: >220 mg/100 mL
Solubility (mg/100 mL) ([3]; Ethanol): 1478 mg/100 mL
Solubility (mg/100 mL) ([3]; Methanol): 4260 mg/100 mL
solubility at 5 min ([3]; Ethanol): 1480 µg/mL (≈ 2520 µM)
solubility at 5 min ([3]; Methanol): 4260 µg/mL (≈ 7270 µM)
decomposition of old standard solution ([9]; methanol solution exposed to room light and temperature for several weeks): only tiny decomposition peaks
